{"source": "patent US20140297199A1", "about": "“DRUG SCREENING METHOD AND USES THEREOF” (COLD SPRING HARBOR LABORATORY, priority 2011, published 2014)", "system": "c-fos-GFP expression in the mouse brain", "experiment": "c-fos-GFP pharmacomaps of three antipsychotics at a moderate dosage (Example 9)", "settings": "5 mouse brains per drug; for brain regions activated (pharmacomap): haloperidol 0.25 mg/kg, risperidone 1.0 mg/kg, aripiprazole 1.0 mg/kg, vs saline; for c-fos-GFP activation, Anterior cingulate cortex (ACAd) / c-fos-GFP activation, Anterior cingulate cortex (ACAv) / c-fos-GFP activation, Basal, Central, Cortic. Amydgala (AMG) / c-fos-GFP activation, Bed nucleus of Stria Terminalis (BST) / c-fos-GFP activation, Caudate-putamen (CP, dorso-medial) / c-fos-GFP activation, Caudate-putamen (CP, ventro-medial) / c-fos-GFP activation, Caudoputamen (CP, dorsolateral) / c-fos-GFP activation, Caudoputamen (CP, ventrolateral) / c-fos-GFP activation, Central medial thalamic nucleus / c-fos-GFP activation, Claustrum (CLA) / c-fos-GFP activation, Dorsomedial hypoth. (HYP) / c-fos-GFP activation, Gostatory Cx (GU) / c-fos-GFP activation, Hippocampus: CA1, CA2, CA3 (HF) / c-fos-GFP activation, Hippocampus: DG / c-fos-GFP activation, Hypothalamus, ventromedial nuclei / c-fos-GFP activation, Infralimbic cortex (IL) / c-fos-GFP activation, Insular area, agranular / c-fos-GFP activation, Lateral Septum (LS) / c-fos-GFP activation, Lateral Spetal Nucl, dorsal part / c-fos-GFP activation, Midline Thalamus (Nucl Reuniens, RE) / c-fos-GFP activation, Midline Thalamus (PVT) / c-fos-GFP activation, Motor area, primary (MOp) / c-fos-GFP activation, Motor area, secondary (MOs) / c-fos-GFP activation, Nucleus Accumbens (ACB), core / c-fos-GFP activation, Nucleus Accumbens (ACB), shell / c-fos-GFP activation, Nucleus Accumbens (ACB), whole / c-fos-GFP activation, Olfactory tubercle (OT) / c-fos-GFP activation, Orbital cortex ventral (VO) / c-fos-GFP activation, Orbital cx (ORB), lateral / c-fos-GFP activation, Orbital cx (ORB), medial / c-fos-GFP activation, Piriform cx (PIR) / c-fos-GFP activation, Prelimbic cx (PL) / c-fos-GFP activation, RSPd, v, d and agl / c-fos-GFP activation, Red nucleus (RN) / c-fos-GFP activation, Somatosensory cx, primary / c-fos-GFP activation, Striatum, ventro-lateral / c-fos-GFP activation, Superior Colliculus (SC) / c-fos-GFP activation, Temporal cortex / c-fos-GFP activation, Ventromedial Thalamus (caudally) / c-fos-GFP activation, Zona Inserta: haloperidol 0.25, risperidone 1.0, aripiprazole 1.0 mg/kg, vs saline-injected control", "note": "Entries after “also recorded” stand apart in the source; their conditions may differ."}
{"smiles": "O=C1CCc2ccc(OCCCCN3CCN(c4cccc(Cl)c4Cl)CC3)cc2N1", "note": "[aripiprazole]", "values": [{"measurement": "brain regions activated (pharmacomap)", "result": "activated a partially overlapping pattern, with more cortical areas, including prominent activation of auditory association and entorhinal areas; also recorded: Parts of the amygdala (AMG), hippocampal formation (HF), and midline thalamus (PVT and RE) also showed activation"}, {"measurement": "c-fos-GFP activation, Anterior cingulate cortex (ACAd)", "result": "up"}, {"measurement": "c-fos-GFP activation, Anterior cingulate cortex (ACAv)", "result": "up"}, {"measurement": "c-fos-GFP activation, Basal, Central, Cortic. Amydgala (AMG)", "result": "up"}, {"measurement": "c-fos-GFP activation, Bed nucleus of Stria Terminalis (BST)", "result": 0}, {"measurement": "c-fos-GFP activation, Caudate-putamen (CP, dorso-medial)", "result": 0}, {"measurement": "c-fos-GFP activation, Caudate-putamen (CP, ventro-medial)", "result": 0}, {"measurement": "c-fos-GFP activation, Caudoputamen (CP, dorsolateral)", "result": "up"}, {"measurement": "c-fos-GFP activation, Caudoputamen (CP, ventrolateral)", "result": 0}, {"measurement": "c-fos-GFP activation, Central medial thalamic nucleus", "result": "up"}, {"measurement": "c-fos-GFP activation, Claustrum (CLA)", "result": "up"}, {"measurement": "c-fos-GFP activation, Dorsomedial hypoth. (HYP)", "result": 0}, {"measurement": "c-fos-GFP activation, Gostatory Cx (GU)", "result": "up"}, {"measurement": "c-fos-GFP activation, Hippocampus: CA1, CA2, CA3 (HF)", "result": "up"}, {"measurement": "c-fos-GFP activation, Hippocampus: DG", "result": "down"}, {"measurement": "c-fos-GFP activation, Hypothalamus, ventromedial nuclei", "result": 0}, {"measurement": "c-fos-GFP activation, Infralimbic cortex (IL)", "result": "up"}, {"measurement": "c-fos-GFP activation, Insular area, agranular", "result": "up"}, {"measurement": "c-fos-GFP activation, Lateral Septum (LS)", "result": 0}, {"measurement": "c-fos-GFP activation, Lateral Spetal Nucl, dorsal part", "result": "up"}, {"measurement": "c-fos-GFP activation, Midline Thalamus (Nucl Reuniens, RE)", "result": "up"}, {"measurement": "c-fos-GFP activation, Midline Thalamus (PVT)", "result": "up"}, {"measurement": "c-fos-GFP activation, Motor area, primary (MOp)", "result": "up"}, {"measurement": "c-fos-GFP activation, Motor area, secondary (MOs)", "result": "up"}, {"measurement": "c-fos-GFP activation, Nucleus Accumbens (ACB), core", "result": "up"}, {"measurement": "c-fos-GFP activation, Nucleus Accumbens (ACB), shell", "result": "up"}, {"measurement": "c-fos-GFP activation, Nucleus Accumbens (ACB), whole", "result": 0}, {"measurement": "c-fos-GFP activation, Olfactory tubercle (OT)", "result": "up"}, {"measurement": "c-fos-GFP activation, Orbital cortex ventral (VO)", "result": 0}, {"measurement": "c-fos-GFP activation, Orbital cx (ORB), lateral", "result": "up"}, {"measurement": "c-fos-GFP activation, Orbital cx (ORB), medial", "result": "up"}, {"measurement": "c-fos-GFP activation, Piriform cx (PIR)", "result": 0}, {"measurement": "c-fos-GFP activation, Prelimbic cx (PL)", "result": "up"}, {"measurement": "c-fos-GFP activation, RSPd, v, d and agl", "result": "up"}, {"measurement": "c-fos-GFP activation, Red nucleus (RN)", "result": "down"}, {"measurement": "c-fos-GFP activation, Somatosensory cx, primary", "result": "up"}, {"measurement": "c-fos-GFP activation, Striatum, ventro-lateral", "result": "up"}, {"measurement": "c-fos-GFP activation, Superior Colliculus (SC)", "result": "up"}, {"measurement": "c-fos-GFP activation, Temporal cortex", "result": "up"}, {"measurement": "c-fos-GFP activation, Ventromedial Thalamus (caudally)", "result": "up"}, {"measurement": "c-fos-GFP activation, Zona Inserta", "result": "up"}]}
{"smiles": "Cc1nc2n(c(=O)c1CCN1CCC(c3noc4cc(F)ccc34)CC1)CCCC2", "note": "[risperidone]", "values": [{"measurement": "brain regions activated (pharmacomap)", "result": "activated the prelimbic (PL), orbital (ORB), piriform (PIR) and gustatory (GU) cortices, the dorsal and ventral CP, ACB, claustrum (CLA), and superior colliculus (SC)"}, {"measurement": "c-fos-GFP activation, Anterior cingulate cortex (ACAd)", "result": 0}, {"measurement": "c-fos-GFP activation, Anterior cingulate cortex (ACAv)", "result": 0}, {"measurement": "c-fos-GFP activation, Basal, Central, Cortic. Amydgala (AMG)", "result": 0}, {"measurement": "c-fos-GFP activation, Bed nucleus of Stria Terminalis (BST)", "result": 0}, {"measurement": "c-fos-GFP activation, Caudate-putamen (CP, dorso-medial)", "result": 0}, {"measurement": "c-fos-GFP activation, Caudate-putamen (CP, ventro-medial)", "result": 0}, {"measurement": "c-fos-GFP activation, Caudoputamen (CP, dorsolateral)", "result": "up"}, {"measurement": "c-fos-GFP activation, Caudoputamen (CP, ventrolateral)", "result": "up"}, {"measurement": "c-fos-GFP activation, Central medial thalamic nucleus", "result": 0}, {"measurement": "c-fos-GFP activation, Claustrum (CLA)", "result": "up"}, {"measurement": "c-fos-GFP activation, Dorsomedial hypoth. (HYP)", "result": 0}, {"measurement": "c-fos-GFP activation, Gostatory Cx (GU)", "result": "up"}, {"measurement": "c-fos-GFP activation, Hippocampus: CA1, CA2, CA3 (HF)", "result": 0}, {"measurement": "c-fos-GFP activation, Hippocampus: DG", "result": 0}, {"measurement": "c-fos-GFP activation, Hypothalamus, ventromedial nuclei", "result": "down"}, {"measurement": "c-fos-GFP activation, Infralimbic cortex (IL)", "result": 0}, {"measurement": "c-fos-GFP activation, Insular area, agranular", "result": 0}, {"measurement": "c-fos-GFP activation, Lateral Septum (LS)", "result": 0}, {"measurement": "c-fos-GFP activation, Lateral Spetal Nucl, dorsal part", "result": 0}, {"measurement": "c-fos-GFP activation, Midline Thalamus (Nucl Reuniens, RE)", "result": 0}, {"measurement": "c-fos-GFP activation, Midline Thalamus (PVT)", "result": 0}, {"measurement": "c-fos-GFP activation, Motor area, primary (MOp)", "result": 0}, {"measurement": "c-fos-GFP activation, Motor area, secondary (MOs)", "result": 0}, {"measurement": "c-fos-GFP activation, Nucleus Accumbens (ACB), core", "result": "up"}, {"measurement": "c-fos-GFP activation, Nucleus Accumbens (ACB), shell", "result": 0}, {"measurement": "c-fos-GFP activation, Nucleus Accumbens (ACB), whole", "result": 0}, {"measurement": "c-fos-GFP activation, Olfactory tubercle (OT)", "result": 0}, {"measurement": "c-fos-GFP activation, Orbital cortex ventral (VO)", "result": "up"}, {"measurement": "c-fos-GFP activation, Orbital cx (ORB), lateral", "result": "up"}, {"measurement": "c-fos-GFP activation, Orbital cx (ORB), medial", "result": "up"}, {"measurement": "c-fos-GFP activation, Piriform cx (PIR)", "result": "up"}, {"measurement": "c-fos-GFP activation, Prelimbic cx (PL)", "result": "down"}, {"measurement": "c-fos-GFP activation, RSPd, v, d and agl", "result": 0}, {"measurement": "c-fos-GFP activation, Red nucleus (RN)", "result": 0}, {"measurement": "c-fos-GFP activation, Somatosensory cx, primary", "result": 0}, {"measurement": "c-fos-GFP activation, Striatum, ventro-lateral", "result": 0}, {"measurement": "c-fos-GFP activation, Superior Colliculus (SC)", "result": 0}, {"measurement": "c-fos-GFP activation, Temporal cortex", "result": 0}, {"measurement": "c-fos-GFP activation, Ventromedial Thalamus (caudally)", "result": 0}, {"measurement": "c-fos-GFP activation, Zona Inserta", "result": 0}]}
